US11034698B2, “Pyrazolo[ 1,5a]pyrimidine derivatives as IRAK4 modulators” (priority 2017, dated 2021)

What follows are compounds tested against human IRAK4 (Homo sapiens (Human), UniProt Q9NWZ3) (assay: IRAK4 kinase inhibition, Transcreener fluorescence polarization (ADP)). Conditions: not given.
Sequence of human IRAK4 (Q9NWZ3 whole entry): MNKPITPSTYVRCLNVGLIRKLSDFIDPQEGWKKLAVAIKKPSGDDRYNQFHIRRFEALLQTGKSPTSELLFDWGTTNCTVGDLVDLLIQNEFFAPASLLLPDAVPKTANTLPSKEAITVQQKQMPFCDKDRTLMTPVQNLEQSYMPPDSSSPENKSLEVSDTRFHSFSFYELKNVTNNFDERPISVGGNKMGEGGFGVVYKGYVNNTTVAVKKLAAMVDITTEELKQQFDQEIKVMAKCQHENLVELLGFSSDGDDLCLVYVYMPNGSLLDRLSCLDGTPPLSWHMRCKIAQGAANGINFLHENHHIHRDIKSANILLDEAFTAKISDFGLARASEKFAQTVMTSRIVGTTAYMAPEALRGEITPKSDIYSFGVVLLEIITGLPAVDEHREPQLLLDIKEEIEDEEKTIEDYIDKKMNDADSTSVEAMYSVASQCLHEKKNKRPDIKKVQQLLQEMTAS
Assay type: biochemical
Procedure: Compounds were assayed for inhibition of human IRAK4 and IRAK1 catalytic activity using recombinant enzyme produced from insect cells. Full-length IRAK4 protein, carrying an N-terminal His6-Tag, was obtained from Life Technologies (Carlsbad, Calif., USA). The IRAK1 construct was produced internally and was comprised of IRAK1 residues Arg194 to Ser712, preceded by an NH2-terminal His6 tag and the coding sequence for glutathione-S-transferase.
Kinase activities were assayed using the Transcreener-Fluorecescence polarization platform (BelBrook Labs, Madison, Wis., USA) that measures amounts of the reaction product, ADP.
Work on `CC(C)(O)[C@H](F)CN1Cc2cc(NC(=O)c3cnn4cccnc34)c(O[C@@H]3CC[C@H](O)C3)cc2C1=O` (single isomer, unassigned) [Example 67] yielded a Ki of 1.1 nM.
Work on `CC1(C)Cc2cc(NC(=O)c3cnn4cccnc34)c(OC[C@H]3Cc4ccccc4[C@@H]3N)cc2O1` (single isomer, unassigned) [Example 28] yielded a Ki of 260 nM.
`CC[C@H]1CC(=O)NN1C1CCN(c2cc3c(cc2NC(=O)c2cnn4cccnc24)CC(C)(C)O3)CC1` (single isomer, unassigned) [Example 18] was tested, and the Ki was 6.7 nM.
`CC1(C)Cc2cc(NC(=O)c3cnn4cccnc34)c(OC[C@@H]3C[C@H]4NCCO[C@@H]4C3)cc2O1` (single isomer, unassigned) [Example 32] was tested, and the Ki was 720 nM.
`C[C@]1(CCC#N)COc2cc(N3CCOCC3)c(NC(=O)c3cnn4cccnc34)cc2C1` (single isomer, unassigned) [Example 59] showed a Ki of 30 nM.
`CC1(C)Cc2cc(NC(=O)c3cnn4cccnc34)c(OC[C@H]3C[C@H]4NCCO[C@@H]4C3)cc2O1` (single isomer, unassigned) [Example 33] was tested, and the Ki was 230 nM.
In the case of `CN1C[C@@H](COc2cc3c(cc2NC(=O)c2cnn4cccnc24)CC(C)(C)O3)CC1=O` (single isomer, unassigned) [Example 25], the Ki is reported as 90 nM.
For `CC1(C)Cc2cc(NC(=O)c3cnn4cccnc34)c(OC[C@@H]3C[C@@H]4NCCO[C@H]4C3)cc2O1` (single isomer, unassigned) [Example 31], the Ki was 60 nM.
In the case of `COc1cc2c(cc1NC(=O)c1cnn3ccc(N4C[C@H](N)CC(F)(F)C4)nc13)CC(C)(C)O2` (single isomer, unassigned) [Example 37], the Ki is reported as 7.7 nM.

Same assay, conditions: recombinant full-length His6-IRAK4 1.25 nM; 125 uM ATP; 125 uM peptide; 90 min; ATP Km 642 uM; read-out: IRAK4 Ki
With `CC(C)(O)[C@H](F)CN1Cc2cc(NC(=O)c3cnn4cccnc34)c(OCC3COC3)cc2C1=O` [Example 79, (R)-N-(2-(2-Fluoro-3-hydroxy-3-methylbutyl)-6-(oxetan-3-ylmethoxy)-1-oxoisoindolin-5-yl)pyrazolo[1,5-a]pyrimidine-3-carboxamide] the Ki was 0.97 nM.
With `CC(C)(O)[C@H](F)CN1Cc2cc(NC(=O)c3cnn4cccnc34)c(O[C@H]3CCNC3)cc2C1=O` [Example 62, N-[2-[(2R)-2-Fluoro-3-hydroxy-3-methyl-butyl]-1-oxo-6-[(3S)-pyrrolidin-3-yl]oxy-isoindolin-5-yl]pyrazolo[1,5-a]pyrimidine-3-carboxamide] the Ki was 9.2 nM.
For `Cc1oncc1CN1CCN(c2cc3c(cc2NC(=O)c2cnn4cccnc24)CC(C)(C)O3)CC1` [Example 12, N-(2,2-Dimethyl-6-(4-((5-methylisoxazol-4-yl)methyl)piperazin-1-yl)-2,3-dihydrobenzofuran-5-yl)pyrazolo[1,5-a]pyrimidine-3-carboxamide], the Ki was 5.2 nM.
`COCCN1CCN(c2cc3c(cc2NC(=O)c2cnn4cccnc24)CN(C[C@@H](F)C(C)(C)O)C3=O)CC1` [Example 112, (R)-N-(2-(2-Fluoro-3-hydroxy-3-methylbutyl)-6-(4-(2-methoxyethyl)piperazin-1-yl)-1-oxoisoindolin-5-yl)pyrazolo[1,5-a]pyrimidine-3-carboxamide] showed a Ki of 2.6 nM.
Compound `CC1(C)Cc2cc(NC(=O)c3cnn4cccnc34)c(OC[C@H]3C[C@@H]4NCCO[C@H]4C3)cc2O1` [Example 30, N-(2,2-Dimethyl-6-(((4aS,6S,7aS)-octahydrocyclopenta[b][1,4]oxazin-6-yl)methoxy)-2,3-dihydrobenzofuran-5-yl)pyrazolo[1,5-a]pyrimidine-3-carboxamide] has a Ki of 66 nM.
With `CCN1C[C@H](COc2cc3c(cc2NC(=O)c2cnn4cccnc24)CC(C)(C)O3)CC1=O` [Example 22, (R)-N-(6-((1-Ethyl-5-oxopyrrolidin-3-yl)methoxy)-2,2-dimethyl-2,3-dihydrobenzofuran-5-yl)pyrazolo[1,5-a]pyrimidine-3-carboxamide] the Ki was 460 nM.
Compound `CC(=O)NCCN1CCN(c2cc3c(cc2NC(=O)c2cnn4cccnc24)CC(C)(C)O3)CC1` [Example 3, N-(6-(4-(2-Acetamidoethyl)piperazin-1-yl)-2,2-dimethyl-2,3-dihydrobenzofuran-5-yl)pyrazolo[1,5-a]pyrimidine-3-carboxamide] has a Ki of 3.7 nM.
With `CC(C)(O)[C@H](F)CN1Cc2cc(NC(=O)c3cnn4cccnc34)c(OC[C@@H]3CNC(=O)C3)cc2C1=O` [Example 71, N-[2-[(2R)-2-Fluoro-3-hydroxy-3-methyl-butyl]-1-oxo-6-[[(3S)-5-oxopyrrolidin-3-yl]methoxy]isoindolin-5-yl]pyrazolo[1,5-a]pyrimidine-3-carboxamide] the Ki was 3.2 nM.
Compound `CC(C)(O)[C@H](F)CN1Cc2cc(NC(=O)c3cnn4cccnc34)c(OC3CCNCC3)cc2C1=O` [Example 70, (R)-N-(2-(2-Fluoro-3-hydroxy-3-methylbutyl)-1-oxo-6-(piperidin-4-yloxy)isoindolin-5-yl)pyrazolo[1,5-a]pyrimidine-3-carboxamide] has a Ki of 0.7 nM.
In the case of `COc1cc2c(cc1NC(=O)c1cnn3ccc(N4CCC[C@@H](N)C4)nc13)CC(C)(C)O2` [Example 39, (R)-5-(3-Aminopiperidin-1-yl)-N-(6-methoxy-2,2-dimethyl-2,3-dihydrobenzofuran-5-yl)pyrazolo[1,5-a]pyrimidine-3-carboxamide], the Ki is reported as 4.1 nM.
`CC(C)(O)[C@H](F)CN1Cc2cc(NC(=O)c3cnn4cccnc34)c(OC3CCCC3)cc2C1=O` [Example 80, (R)-N-(6-(Cyclopentyloxy)-2-(2-fluoro-3-hydroxy-3-methylbutyl)-1-oxoisoindolin-5-yl)pyrazolo[1,5-a]pyrimidine-3-carboxamide] showed a Ki of 0.97 nM.
Work on `CC(C)(O)c1cc2c(cc1NC(=O)c1cnn3cccnc13)CN(C[C@@H](F)C(C)(C)O)C2=O` [Example 148, (R)—N-(2-(2-Fluoro-3-hydroxy-3-methylbutyl)-6-(2-hydroxypropan-2-yl)-1-oxoisoindolin-5-yl)pyrazolo[1,5-a]pyrimidine-3-carboxamide] yielded a Ki of 16 nM.
`O=C(Nc1cc2c(cc1N1CCOCC1)N(CCCO)C(=O)CC2)c1cnn2cccnc12` [Example 48, N-(1-(3-Hydroxypropyl)-7-morpholino-2-oxo-1,2,3,4-tetrahydroquinolin-6-yl)pyrazolo[1,5-a]pyrimidine-3-carboxamide] was tested, and the Ki was 240 nM.
For `CC(C)(O)[C@H](F)CN1Cc2cc(NC(=O)c3cnn4cccnc34)c(N3CCN4CCC[C@@H]4C3)cc2C1=O` [Example 100, N-(2-((R)-2-Fluoro-3-hydroxy-3-methylbutyl)-6-((R)-hexahydropyrrolo[1,2-a]pyrazin-2(1H)-yl)-1-oxoisoindolin-5-yl)pyrazolo[1,5-a]pyrimidine-3-carboxamide], the Ki was 1.8 nM.
`COc1cc2c(cc1NC(=O)c1cnn3ccc(N[C@@H]4CCCNC4)nc13)CC(C)(C)O2` [Example 40, (R)-N-(6-Methoxy-2,2-dimethyl-2,3-dihydrobenzofuran-5-yl)-5-(piperidin-3-ylamino)pyrazolo[1,5-a]pyrimidine-3-carboxamide] showed a Ki of 0.87 nM.
With `CC(C)(O)[C@H](F)CN1Cc2cc(NC(=O)c3cnn4cccnc34)c(O[C@@H]3CCOC3)cc2C1=O` [Example 83, N-(2-((R)-2-Fluoro-3-hydroxy-3-methylbutyl)-1-oxo-6-(((R)-tetrahydrofuran-3-yl)oxy)isoindolin-5-yl)pyrazolo[1,5-a]pyrimidine-3-carboxamide] the Ki was 0.71 nM.
In the case of `COc1cc2c(cc1NC(=O)c1cnn3ccc(N(C)C)nc13)CC(C)(C)O2` [Example 44, 5-(Dimethylamino)-N-(6-methoxy-2,2-dimethyl-2,3-dihydrobenzofuran-5-yl)pyrazolo[1,5-a]pyrimidine-3-carboxamide], the Ki is reported as 220 nM.
Compound `CNc1cc2c(cc1NC(=O)c1cnn3cccnc13)CN(C[C@@H](F)C(C)(C)O)C2=O` [Example 91, N-[2-[(2R)-2-Fluoro-3-hydroxy-3-methyl-butyl]-6-(methylamino)-1-oxo-isoindolin-5-yl]pyrazolo[1,5-a]pyrimidine-3-carboxamide] has a Ki of 280 nM.
`CC[C@@H]1CC(=O)NN1C1CCN(c2cc3c(cc2NC(=O)c2cnn4cccnc24)CC(C)(C)O3)CC1` [Example 17, (R)-N-(6-(4-(5-Ethyl-3-oxopyrazolidin-1-yl)piperidin-1-yl)-2,2-dimethyl-2,3-dihydrobenzofuran-5-yl)pyrazolo[1,5-a]pyrimidine-3-carboxamide] gave a Ki of 8.4 nM.
Work on `CC(C)(O)[C@H](F)CN1Cc2cc(NC(=O)c3cnn4cccnc34)c(OCC(F)(F)F)cc2C1=O` [Example 135, (R)—N-(2-(2-Fluoro-3-hydroxy-3-methylbutyl)-1-oxo-6-(2,2,2-trifluoroethoxy)isoindolin-5-yl)pyrazolo[1,5-a]pyrimidine-3-carboxamide] yielded a Ki of 0.63 nM.
For `O=C1CCc2cc(NC(=O)c3cnn4cccnc34)c(N3CCOCC3)cc2N1` [Example 46, N-(7-Morpholino-2-oxo-1,2,3,4-tetrahydroquinolin-6-yl)pyrazolo[1,5-a]pyrimidine-3-carboxamide], the Ki was 42 nM.
`CC(C)(O)[C@H](F)CN1Cc2cc(NC(=O)c3cnn4cccnc34)c(C3COC3)cc2C1=O` [Example 147, N-[2-[(2R)-2-Fluoro-3-hydroxy-3-methyl-butyl]-6-(oxetan-3-yl)-1-oxo-isoindolin-5-yl]pyrazolo[1,5-a]pyrimidine-3-carboxamide] gave a Ki of 48 nM.
`CC1(C)Cc2cc3c(cc2O1)N1CCN(CCNc2ccn4ncc(c4n2)C(=O)N3)CC1` [Example 45, (5^3E,5^4E)-2^2,2^2-Dimethyl-2^2,2^3-dihydro-3,6-diaza-5(3,5)-pyrazolo[1,5-a]pyrimidina-1(1,4)-piperazina-2(6,5)-benzofuranacyclooctaphan-4-one] gave a Ki of 120 nM.
`CC(C)(O)[C@H](F)CN1Cc2cc(NC(=O)c3cnn4cccnc34)c(OC(F)F)cc2C1=O` [Example 88, (R)-N-(6-(Difluoromethoxy)-2-(2-fluoro-3-hydroxy-3-methylbutyl)-1-oxoisoindolin-5-yl)pyrazolo[1,5-a]pyrimidine-3-carboxamide] showed a Ki of 0.5 nM.
